Reference: PubChem BioAssay AID1963450 (Molecular Pharmacology Branch, DTP, NCI, 2024)

Test system: 556581-035-R-J1-PDC complex spheroid growth
Experiment: Anticancer human tumor 556581-035-R-J1-PDC patient-derived ovarian carcinoma cell line growth inhibition [Asc]
Settings: for IC50: curve of first compound; for viability, T/C: stronger effect = lower value
Method in brief: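 Concentration series start at each agent's clinical Cmax, or at 10 microM when none is established, and drop in half-log steps; agents are applied alone or together to complex spheroids built with HUVEC and hMSC.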

[1] = second compound 0.1 µM, first compound 0.00316 µM
[2] = second compound 0.1 µM, first compound 0.01 µM
[3] = second compound 0.1 µM, first compound 0.0316 µM
[4] = second compound 0.1 µM, first compound 0.1 µM
[5] = second compound 0.316 µM, first compound 0.00316 µM
[6] = second compound 0.316 µM, first compound 0.01 µM
[7] = second compound 0.316 µM, first compound 0.0316 µM
[8] = second compound 0.316 µM, first compound 0.1 µM
[9] = second compound 1 µM, first compound 0.00316 µM
[10] = second compound 1 µM, first compound 0.01 µM
[11] = second compound 1 µM, first compound 0.0316 µM
[12] = second compound 1 µM, first compound 0.1 µM
[13] = second compound 3.16 µM, first compound 0.00316 µM
[14] = second compound 3.16 µM, first compound 0.01 µM
[15] = second compound 3.16 µM, first compound 0.0316 µM
[16] = second compound 3.16 µM, first compound 0.1 µM
[17] = second compound 10 µM, first compound 0.00316 µM
[18] = second compound 10 µM, first compound 0.01 µM
[19] = second compound 10 µM, first compound 0.0316 µM
[20] = second compound 10 µM, first compound 0.1 µM
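Further: spheroids exposed to agents for 7 days before viability read.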

For `NC(=O)C(=Cn1cnc(-c2cc(C(F)(F)F)cc(C(F)(F)F)c2)n1)c1cncnc1` + Cc1c(S(C)(=O)=O)c(-c2cc(F)cc(N3CCN(c4ccc(NS(=O)(=O)c5ccc(NC(CCN6CCC(C(=O)OCCCP(=O)(O)O)CC6)CSc6ccccc6)c(S(=O)(=O)C(F)(F)F)c5)cc4)CC3)c2)c(-c2ccc(Cl)cc2)n1C(C)C, the IC50 (second compound 0.1 µM) was > 300 nM, the IC50 (second compound 0.316 µM) was > 300 nM and the IC50 (second compound 1 µM) was > 300 nM. For the same compound, the IC50 (second compound 3.16 µM) was 148 nM, the IC50 (second compound 10 µM) was 87.6 nM and the viability, T/C (second compound 0.1 µM, first compound 0.000949 µM) was 70.9%. It also gave a viability, T/C (second compound 0.1 µM, first compound 0.003 µM) of 72.3%, a viability, T/C (second compound 0.1 µM, first compound 0.00949 µM) of 75% and a viability, T/C (second compound 0.1 µM, first compound 0.03 µM) of 57.8%. The viability, T/C (second compound 0.1 µM, first compound 0.0949 µM) was 75.9%, the viability, T/C (second compound 0.1 µM, first compound 0.3 µM) was 66.1% and the viability, T/C (second compound 0.316 µM, first compound 0.000949 µM) was 81.2%. The viability, T/C (second compound 0.316 µM, first compound 0.003 µM) was 75.6%, the viability, T/C (second compound 0.316 µM, first compound 0.00949 µM) was 80.3% and the viability, T/C (second compound 0.316 µM, first compound 0.03 µM) was 69.5%. For the same compound, the viability, T/C (second compound 0.316 µM, first compound 0.0949 µM) was 66.3%, the viability, T/C (second compound 0.316 µM, first compound 0.3 µM) was 52.9% and the viability, T/C (second compound 1 µM, first compound 0.000949 µM) was 78%. The viability, T/C (second compound 1 µM, first compound 0.003 µM) was 63.5%, the viability, T/C (second compound 1 µM, first compound 0.00949 µM) was 63.8% and the viability, T/C (second compound 1 µM, first compound 0.03 µM) was 68.5%. It also gave a viability, T/C (second compound 1 µM, first compound 0.0949 µM) of 52.9%, a viability, T/C (second compound 1 µM, first compound 0.3 µM) of 59.5% and a viability, T/C (second compound 3.16 µM, first compound 0.000949 µM) of 57.2%. The viability, T/C (second compound 3.16 µM, first compound 0.003 µM) was 61.2%, the viability, T/C (second compound 3.16 µM, first compound 0.00949 µM) was 70.3% and the viability, T/C (second compound 3.16 µM, first compound 0.03 µM) was 63.9%. It also gave a viability, T/C (second compound 3.16 µM, first compound 0.0949 µM) of 59.6%, a viability, T/C (second compound 3.16 µM, first compound 0.3 µM) of 34% and a viability, T/C (second compound 10 µM, first compound 0.000949 µM) of 73%. For the same compound, the viability, T/C (second compound 10 µM, first compound 0.003 µM) was 63.9%, the viability, T/C (second compound 10 µM, first compound 0.00949 µM) was 61% and the viability, T/C (second compound 10 µM, first compound 0.03 µM) was 55%. The viability, T/C (second compound 10 µM, first compound 0.0949 µM) was 49.2% and the viability, T/C (second compound 10 µM, first compound 0.3 µM) was 45.6%.

With `NC1CCC(NC2CC2c2ccccc2)CC1` (stereo not given) + Cc1c(S(C)(=O)=O)c(-c2cc(F)cc(N3CCN(c4ccc(NS(=O)(=O)c5ccc(NC(CCN6CCC(C(=O)OCCCP(=O)(O)O)CC6)CSc6ccccc6)c(S(=O)(=O)C(F)(F)F)c5)cc4)CC3)c2)c(-c2ccc(Cl)cc2)n1C(C)C the IC50 (second compound 0.1 µM) was > 100 nM, the IC50 (second compound 0.316 µM) was > 100 nM and the IC50 (second compound 1 µM) was > 100 nM. The IC50 (second compound 3.16 µM) was > 100 nM, the IC50 (second compound 10 µM) was > 100 nM and the viability, T/C (second compound 0.1 µM, first compound 0.000316 µM) was 74.9%. The viability, T/C (second compound 0.1 µM, first compound 0.001 µM) was 90.3%, the viability, T/C [1] was 64.5% and the viability, T/C [2] was 77.2%. It also gave a viability, T/C [3] of 75.6%, a viability, T/C [4] of 76.9% and a viability, T/C (second compound 0.316 µM, first compound 0.000316 µM) of 74%. For the same compound, the viability, T/C (second compound 0.316 µM, first compound 0.001 µM) was 83.3%, the viability, T/C [5] was 67.2% and the viability, T/C [6] was 82.5%. For the same compound, the viability, T/C [7] was 80.5%, the viability, T/C [8] was 75.5% and the viability, T/C (second compound 1 µM, first compound 0.000316 µM) was 62.9%. It also gave a viability, T/C (second compound 1 µM, first compound 0.001 µM) of 64%, a viability, T/C [9] of 67.8% and a viability, T/C [10] of 64.8%. It also gave a viability, T/C [11] of 62.4%, a viability, T/C [12] of 56.4% and a viability, T/C (second compound 3.16 µM, first compound 0.000316 µM) of 58.8%. It also gave a viability, T/C (second compound 3.16 µM, first compound 0.001 µM) of 73.7%, a viability, T/C [13] of 64.5% and a viability, T/C [14] of 54.4%. For the same compound, the viability, T/C [15] was 71.9%, the viability, T/C [16] was 58.2% and the viability, T/C (second compound 10 µM, first compound 0.000316 µM) was 61.5%. It also gave a viability, T/C (second compound 10 µM, first compound 0.001 µM) of 57.2%, a viability, T/C [17] of 56.8% and a viability, T/C [18] of 50.1%. For the same compound, the viability, T/C [19] was 69.5% and the viability, T/C [20] was 63.4%.

With `O=C(c1ccc(F)c(F)c1Nc1ccc(I)cc1F)N1CC(O)([C@@H]2CCCCN2)C1` + Cc1c(S(C)(=O)=O)c(-c2cc(F)cc(N3CCN(c4ccc(NS(=O)(=O)c5ccc(NC(CCN6CCC(C(=O)OCCCP(=O)(O)O)CC6)CSc6ccccc6)c(S(=O)(=O)C(F)(F)F)c5)cc4)CC3)c2)c(-c2ccc(Cl)cc2)n1C(C)C the IC50 (second compound 0.1 µM) was 92.9 nM, the IC50 (second compound 0.316 µM) was 55.4 nM and the IC50 (second compound 1 µM) was 44 nM. For the same compound, the IC50 (second compound 3.16 µM) was 56.6 nM, the IC50 (second compound 10 µM) was 4.93 nM and the viability, T/C [1] was 73%. For the same compound, the viability, T/C [2] was 66.8%, the viability, T/C [3] was 72.6% and the viability, T/C [4] was 44.9%. It also gave a viability, T/C (second compound 0.1 µM, first compound 0.316 µM) of 23.8%, a viability, T/C (second compound 0.1 µM, first compound 1 µM) of 4.45% and a viability, T/C [5] of 59.6%. The viability, T/C [6] was 58.8%, the viability, T/C [7] was 61.6% and the viability, T/C [8] was 39.4%. It also gave a viability, T/C (second compound 0.316 µM, first compound 0.316 µM) of 21.6%, a viability, T/C (second compound 0.316 µM, first compound 1 µM) of 25.9% and a viability, T/C [9] of 70%. For the same compound, the viability, T/C [10] was 73.7%, the viability, T/C [11] was 57.1% and the viability, T/C [12] was 29.5%. The viability, T/C (second compound 1 µM, first compound 0.316 µM) was 8.66%, the viability, T/C (second compound 1 µM, first compound 1 µM) was 1.82% and the viability, T/C [13] was 67.7%. For the same compound, the viability, T/C [14] was 54.5%, the viability, T/C [15] was 57.4% and the viability, T/C [16] was 45.5%. The viability, T/C (second compound 3.16 µM, first compound 0.316 µM) was 22.3%, the viability, T/C (second compound 3.16 µM, first compound 1 µM) was 4.54% and the viability, T/C [17] was 49.6%. It also gave a viability, T/C [18] of 51.9%, a viability, T/C [19] of 40.5% and a viability, T/C [20] of 15.2%. It also gave a viability, T/C (second compound 10 µM, first compound 0.316 µM) of 38.4% and a viability, T/C (second compound 10 µM, first compound 1 µM) of 16%.
